One data set concerns HT-1080. The data set is described as follows: Anti-ferroptotic activity against Erastin-induced ferroptosis in human HT-1080 cells assessed as cell activity measured after 24 hrs by Cell Titer-Glo luminescent assay. To be noted: HT-1080, 24 h. Type of data set: functional, cell-based.
Data set [1] is described as follows: Lipophilicity, log P of the compound. Type of data set: physicochemical. The conditions noted are these: octanol/water.
Data set [2] in a line: Metabolic stability in mouse liver S9 fraction assessed as half life measured upto 60 mins in presence of NADPH by LC-MS/MS analysis. Type of data set: ADME, subcellular.
Data set [3] can be described thus: Metabolic stability in human liver S9 fraction assessed as half life measured upto 60 mins in presence of NADPH by LC-MS/MS analysis. Type of data set: ADME, subcellular.
Another data set concerns RAW264.7. Put plainly: Anti-ferroptotic activity against RSL-3 induced ferroptosis in mouse RAW264.7 cells assessed as cell activity measured after 24 hrs by Cell Titer-Glo luminescent assay. Type of data set: functional, cell-based. The conditions noted are these: RAW264.7, 24 h.

A value given as a limit tells only on which side of the number the result lay.

In the case of `CC1(C)CC(NC(=O)C(/C=C/[C@H](NC(=O)OC(C)(C)C)c2ccoc2)(Cc2ccc(F)cc2)Cc2ccc(F)cc2)CC(C)(C)N1`, the EC50 (commonly the midpoint of the concentration-response curve) with HT-1080 is 240 nM. For the same compound, in data set [1], the logP (usually a log measure of how a compound divides between an organic and an aqueous phase) amounted to 6.

Regarding `CC1(C)CC(NC(=O)C(/C=C/[C@@H](NC(=O)OC(C)(C)C)c2ccoc2)(Cc2ccc(F)cc2)Cc2ccc(F)cc2)CC(C)(C)N1`, in the data set on HT-1080, the EC50 came out at 430 nM. The compound further showed a logP in data set [1] of 6.

In the case of `CC1(C)CC(NC(=O)C(/C=C/[C@@H](NC(=O)OC(C)(C)C)c2ccc(F)cc2)(Cc2ccc(F)cn2)Cc2ccc(F)cn2)CC(C)(C)N1`, in the data set on HT-1080, the EC50 is > 2000 nM. The logP in data set [1] was found to be 5.8.

Take `CC(C)C[C@@H](/C=C/C(Cc1ccccc1)(Cc1ccccc1)C(=O)NC1CC(C)(C)NC(C)(C)C1)NC(=O)OC(C)(C)C`: the half-life (as a rule, how long it takes for the measured level to halve) came out at 3 min in data set [2] and 7 min in data set [3]. The results for the EC50 in the data set with HT-1080 and in the data set with RAW264.7 were 130 nM and 370 nM, respectively. This compound also had a logP in data set [1] of 7.2.

On to `CC(C)C[C@H](/C=C/C(C)(C)C(=O)NC1CC(C)(C)NC(C)(C)C1)NC(=O)OC(C)(C)C`, for which the figures for the half-life in data set [2] and in data set [3] were 3 min and 7 min, respectively. Besides, the EC50 with HT-1080 is 250 nM; in the data set with RAW264.7, 1170 nM. For the same compound, the logP in data set [1] was 4.

`CC(C)C[C@H](/C=C/C(Cc1ccc(F)cc1)(Cc1ccc(F)cc1)C(=O)NC1CC(C)(C)NC(C)(C)C1)NC(=O)OC(C)(C)C`: in the data set on HT-1080, the EC50 is 180 nM. This compound gave a logP in data set [1] of 7.6.

In the case of `CC1(C)CC(NC(=O)C(C)(C)/C=C/[C@H](NC(=O)OC(C)(C)C)c2ccccc2)CC(C)(C)N1`, the EC50 with HT-1080 stood at 330 nM. In data set [1], the logP is 4.2.

For the compound `CC(C)C[C@@H](/C=C/C(Cc1ccc(F)cc1)(Cc1ccc(F)cc1)C(=O)NC1CC(C)(C)NC(C)(C)C1)NC(=O)OC(C)(C)C`, the EC50 was 330 nM in the data set on HT-1080 and 600 nM with RAW264.7. Also, in data set [1], the logP is 7.6.

For the compound `CC(C)C[C@@H](/C=C/C1(C(=O)NC2CC(C)(C)NC(C)(C)C2)CCCC1)NC(=O)OC(C)(C)C`, the EC50 in the data set with HT-1080 turned out to be 560 nM. Also, in data set [1], the logP worked out at 4.4.

In the case of `CC1(C)CC(NC(=O)C/C=C/[C@H](NC(=O)OC(C)(C)C)c2ccccc2)CC(C)(C)N1`, the EC50 in the data set with HT-1080 is 1300 nM; with RAW264.7, 2760 nM. Further, the lipophilicity (logP) in data set [1] was found to be 2.9.

Turning to `CC1(C)CC(NC(=O)C(/C=C/[C@H](NC(=O)OC(C)(C)C)c2ccc(F)cc2)(Cc2ccc(F)cc2)Cc2ccc(F)cc2)CC(C)(C)N1`, the half-life in data set [2] came out at 3 min; in data set [3], 7 min. In addition, the EC50 in the data set with HT-1080 was 340 nM; in the data set with RAW264.7, 250 nM. In data set [1], this compound yielded a logP of 7.9.

For the compound `CCOC(=O)c1ccc(NC2CCCCC2)c(N)c1`, the EC50 was found to be 70 nM with HT-1080 and 40 nM in the data set on RAW264.7. The compound also registered a logP in data set [1] of 2.8.

Consider `CC1(C)CC(NC(=O)C(/C=C/[C@@H](NC(=O)OC(C)(C)C)c2ccc(F)cc2)(Cc2ccc(F)cc2)Cc2ccc(F)cc2)CC(C)(C)N1`, for which the EC50 in the data set with HT-1080 is 280 nM. Besides, in data set [1], the logP is 7.9.

For the compound `CC(C)C[C@@H](/C=C/CC(=O)NC1CC(C)(C)NC(C)(C)C1)NC(=O)OC(C)(C)C`, the half-life in data set [2] was determined as 9 min; in data set [3], 5 min. Also, the figures for the EC50 with HT-1080 and in the data set with RAW264.7 were 3580 nM and 4090 nM, respectively. The same compound gave a logP in data set [1] of 2.8.

With `CC(C)C[C@@H](/C=C/C1(C(=O)NC2CC(C)(C)NC(C)(C)C2)CC1)NC(=O)OC(C)(C)C`, the EC50 stood at 800 nM in the data set with HT-1080 and 1130 nM in the data set with RAW264.7. This compound had a logP in data set [1] of 3.5.

With `CC(C)C[C@@H](/C=C/C1(C(=O)NC2CC(C)(C)NC(C)(C)C2)CCOCC1)NC(=O)OC(C)(C)C`, the EC50 in the data set with HT-1080 came to 2200 nM. The compound further yielded a logP in data set [1] of 3.1.

For the compound `CC(C)C[C@@H](/C=C/C(C)(C)C(=O)NC1CC(C)(C)NC(C)(C)C1)NC(=O)OC(C)(C)C`, the EC50 is 240 nM with HT-1080 and 1150 nM in the data set with RAW264.7. In data set [1], the logP is 4.
